Reference: patent US20220177428A1, “SPECIFICALLY SUBSTITUTED 3-(2-ALKOXY-6-ALKYL-4-PROPINYLPHENYL)-3-PYRROLIN-2-ONES AND THEIR USE AS HERBICIDES” (Bayer Aktiengesellschaft, priority 2019, published 2022)

Key:
Assay type in all cases: in vivo
Lolium rigidum [1] = assay: Post-emergence herbicidal effect; settings: 80 g ai/ha, visual score after about 3 weeks
Experimental: (§1) [table] Seeds of monocotyledonous and dicotyledonous weed and crop plants are laid out in sandy loam soil in wood-fibre pots, covered with soil and cultivated in a greenhouse under good growth conditions. 2 to 3 weeks after sowing, the test plants are treated at the one-leaf stage. The compounds of the invention, formulated in the form of wettable powders (WP) or as emulsion concentrates (EC), are then sprayed onto the green parts of the plants as aqueous suspension or emulsion at a water application rate equating to 600 to 800 L/ha with addition of 0.2% wetting agent. After the test plants have been left to stand in the greenhouse under optimal growth conditions for about 3 weeks, the action of the preparations is assessed visually in comparison to untreated controls (herbicidal action in percent (%): 100% activity=the plants have died, 0% activity=like control plants).

Setaria viridis [2] = assay: Post-emergence herbicidal effect; settings: 80 g ai/ha, visual score after about 3 weeks
Experimental: as §1

Echinochloa crus-galli [3] = assay: Post-emergence herbicidal effect; settings: 80 g ai/ha, visual score after about 3 weeks
Experimental: as §1

Avena fatua [4] = assay: Post-emergence herbicidal effect; settings: 80 g ai/ha, visual score after about 3 weeks
Experimental: as §1

Digitaria sanguinalis [5] = assay: Post-emergence herbicidal effect; settings: 80 g ai/ha, visual score after about 3 weeks
Experimental: as §1

Alopecurus myosuroides [6] = assay: Post-emergence herbicidal effect; settings: 80 g ai/ha, visual score after about 3 weeks
Experimental: as §1

Lolium rigidum [7] = assay: Pre-emergence herbicidal effect; settings: visual score after 3 weeks
Text: (§2) Seeds of monocotyledonous and dicotyledonous weed plants and crop plants are laid out in sandy loam soil in wood-fibre pots and covered with soil. The compounds of the invention, formulated in the form of wettable powders (WP) or as emulsion concentrates (EC), are then applied to the surface of the covering soil as aqueous suspension or emulsion at a water application rate equating to 600 to 800 L/ha with addition of 0.2% wetting agent. After the treatment, the pots are placed in a greenhouse and kept under good growth conditions for the trial plants. The damage to the test plants is scored visually after a test period of 3 weeks by comparison with untreated controls (herbicidal activity in percent (%): 100% activity=the plants have died, 0% activity=like control plants). [table]

Abutylon threophrasti = assay: Pre-emergence herbicidal effect; settings: 320 g ai/ha, visual score after 3 weeks
Text: as §2

Veronica persica = assay: Pre-emergence herbicidal effect; settings: 320 g ai/ha, visual score after 3 weeks
Text: as §2

Viola tricolor = assay: Pre-emergence herbicidal effect; settings: visual score after 3 weeks
Text: as §2

Setaria viridis [8] = assay: Pre-emergence herbicidal effect; settings: visual score after 3 weeks
Text: as §2

Echinochloa crus-galli [9] = assay: Pre-emergence herbicidal effect; settings: visual score after 3 weeks
Text: as §2

Matricaria inodora = assay: Pre-emergence herbicidal effect; settings: 320 g ai/ha, visual score after 3 weeks
Text: as §2

Avena fatua [10] = assay: Pre-emergence herbicidal effect; settings: visual score after 3 weeks
Text: as §2

Digitaria sanguinalis [11] = assay: Pre-emergence herbicidal effect; settings: visual score after 3 weeks
Text: as §2

Amaranthus retroflexus = assay: Pre-emergence herbicidal effect; settings: 320 g ai/ha, visual score after 3 weeks
Text: as §2

Alopecurus myosuroides [12] = assay: Pre-emergence herbicidal effect; settings: visual score after 3 weeks
Text: as §2

Hordeum murinum = assay: Post-emergence herbicidal effect; settings: 80 g ai/ha, visual score after about 3 weeks
Experimental: as §1

| Structure (SMILES) | Post-emergence activity LOLRI (Lolium rigidum [1]) [%] | Post-emergence activity SETVI (Setaria viridis [2]) [%] | Post-emergence activity ECHCG (Echinochloa crus-galli [3]) [%] | Post-emergence activity AVEFA (Avena fatua [4]) [%] | Post-emergence activity DIGSA (Digitaria sanguinalis [5]) [%] | Post-emergence activity ALOMY (Alopecurus myosuroides [6]) [%] | Pre-emergence activity LOLRI (Lolium rigidum [7]; 80 g ai/ha) [%] | Pre-emergence activity LOLRI (Lolium rigidum [7]; 320 g ai/ha) [%] | Pre-emergence activity ABUTH (Abutylon threophrasti) [%] | Pre-emergence activity VERPE (Veronica persica) [%] | Pre-emergence activity VIOTR (Viola tricolor; 80 g ai/ha) [%] | Pre-emergence activity VIOTR (Viola tricolor; 320 g ai/ha) [%] | Pre-emergence activity SETVI (Setaria viridis [8]; 80 g ai/ha) [%] | Pre-emergence activity SETVI (Setaria viridis [8]; 320 g ai/ha) [%] | Pre-emergence activity ECHCG (Echinochloa crus-galli [9]; 80 g ai/ha) [%] | Pre-emergence activity ECHCG (Echinochloa crus-galli [9]; 320 g ai/ha) [%] | Pre-emergence activity MATIN (Matricaria inodora) [%] | Pre-emergence activity DIGSA (Digitaria sanguinalis [11]; 80 g ai/ha) [%] | Pre-emergence activity ALOMY (Alopecurus myosuroides [12]; 80 g ai/ha) [%] | Pre-emergence activity AVEFA (Avena fatua [10]; 80 g ai/ha) [%] | other results |
| --- | --- | --- | --- | --- | --- | --- | --- | --- | --- | --- | --- | --- | --- | --- | --- | --- | --- | --- | --- | --- | --- |
| CC#Cc1cc(C)c(C2=C(O)C3(CCC(OCCC)CC3)NC2=O)c(OC)c1 (stereo not shown) [Example D2] | 100 | 100 | 100 | 100 | 100 | 100 | 90 | 100 | 100 | 80 | 100 | 100 | 100 | 100 | 80 | 100 | 100 | 100 | 80 | – | Pre-emergence activity AVEFA (Avena fatua [10]; 320 g ai/ha): 100%; Pre-emergence activity DIGSA (Digitaria sanguinalis [11]; 320 g ai/ha): 100%; Pre-emergence activity AMARE (Amaranthus retroflexus): 100%; Pre-emergence activity ALOMY (Alopecurus myosuroides [12]; 320 g ai/ha): 100% |
| CC#Cc1cc(C)c(C2=C(OC(=O)OCC)C3(CCC(COC)CC3)NC2=O)c(OC)c1 (stereo not shown) [Example Q8] | 100 | 100 | 100 | 100 | 100 | 100 | 100 | 100 | 100 | 100 | 100 | 100 | 100 | 100 | 100 | 100 | 100 | 100 | 100 | 80 | Pre-emergence activity AVEFA (Avena fatua [10]; 320 g ai/ha): 100%; Pre-emergence activity DIGSA (Digitaria sanguinalis [11]; 320 g ai/ha): 100%; Pre-emergence activity AMARE (Amaranthus retroflexus): 100%; Pre-emergence activity ALOMY (Alopecurus myosuroides [12]; 320 g ai/ha): 100% |
| CC#Cc1cc(C)c(C2=C(O)C3(CCC(OC(C)C)CC3)NC2=O)c(OC)c1 (stereo not shown) [Example D3] | 100 | 100 | 100 | 100 | 100 | 100 | 100 | – | – | – | 100 | – | 100 | – | 100 | – | – | 100 | 100 | 80 | Post-emergence activity HORMU (Hordeum murinum): 80% |
| CC#Cc1cc(C)c(C2=C(O)C3(CCC(COC)CC3)NC2=O)c(OC)c1 (stereo not shown) [Example D6] | 100 | 100 | 100 | 100 | 100 | 100 | 100 | 100 | 100 | 100 | – | 100 | 100 | 100 | – | 100 | 90 | 100 | 80 | 80 | Pre-emergence activity AVEFA (Avena fatua [10]; 320 g ai/ha): 100%; Pre-emergence activity DIGSA (Digitaria sanguinalis [11]; 320 g ai/ha): 100%; Pre-emergence activity AMARE (Amaranthus retroflexus): 100%; Pre-emergence activity ALOMY (Alopecurus myosuroides [12]; 320 g ai/ha): 100% |
| C=CCOC1CCC2(CC1)NC(=O)C(c1c(C)cc(C#CC)cc1OC)=C2OC(=O)OCC (stereo not shown) [Example Q4] | 100 | 100 | 100 | 90 | 100 | 100 | 100 | – | – | – | 100 | – | 100 | – | 100 | – | – | 100 | 100 | 90 | Post-emergence activity HORMU (Hordeum murinum): 100% |
| CC#Cc1cc(C)c(C2=C(OC(=O)OCC)C3(CCC(OCCC)CC3)NC2=O)c(OC)c1 (stereo not shown) [Example Q2] | 100 | 100 | 100 | 90 | 100 | 100 | 100 | 100 | 90 | 90 | 100 | 100 | 100 | 100 | 100 | 100 | 100 | 100 | 100 | 80 | Pre-emergence activity AVEFA (Avena fatua [10]; 320 g ai/ha): 100%; Pre-emergence activity DIGSA (Digitaria sanguinalis [11]; 320 g ai/ha): 100%; Pre-emergence activity AMARE (Amaranthus retroflexus): 100%; Pre-emergence activity ALOMY (Alopecurus myosuroides [12]; 320 g ai/ha): 100% |
